In patent US20260258035A1, “FIVE-MEMBERED AND SIX-MEMBERED NITROGEN-CONTAINING COMPOUND, AND INTERMEDIATE, PREPARATION METHOD AND USE THEREOF” (HANGZHOU SYNRX THERAPEUTICS BIOMEDICAL TECHNOLOGY CO., LTD., priority 2022, published 2026):

Experiments:
PXR = target: T1, PXR (Homo sapiens, UniProt O75469); assay: PXR assay (DPX2 luciferase reporter cells); format: cell-based; settings: 24 h; for PXR Activation @30 uM (% Ctrl): positive control rifampicin
T1 construct: host or cells: DPX2 (HepG2)
T1 sequence (O75469 1-434): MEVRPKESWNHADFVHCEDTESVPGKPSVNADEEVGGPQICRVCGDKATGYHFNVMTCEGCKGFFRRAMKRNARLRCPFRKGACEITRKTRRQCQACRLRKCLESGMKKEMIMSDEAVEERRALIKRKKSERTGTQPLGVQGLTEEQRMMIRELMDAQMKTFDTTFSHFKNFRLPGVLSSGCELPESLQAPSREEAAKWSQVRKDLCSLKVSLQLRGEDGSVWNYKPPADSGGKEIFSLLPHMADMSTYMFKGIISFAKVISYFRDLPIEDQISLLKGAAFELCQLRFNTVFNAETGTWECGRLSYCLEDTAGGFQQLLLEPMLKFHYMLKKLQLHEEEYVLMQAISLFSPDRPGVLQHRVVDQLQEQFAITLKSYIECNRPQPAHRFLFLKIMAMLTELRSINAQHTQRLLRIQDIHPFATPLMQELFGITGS
Procedure: 1) Information of Cell Line
DPX2 (HepG2 cells stably transfected with PXR and luciferase reporter) cells were purchased from Puracyp Inc (Carlsbad, CA).
2) Experimental Procedures a) Reagents and Consumables
The DPX2 cells were cultured in the growth medium containing 1000 fetal bovine serum. The DPX2 cells in a T-75 flask were cultured in the […] incubator at 37° C. with 950% relative humidity, and digested when the cells grew to cover 80-90% of the bottom of the flask.
The surface layer of the T-75 cultured cells was washed with 10 mL of PBS; PBS was pipetted; 3-5 mL of tryp sin was added; the cells were digested at 37° C. for 5 minutes or until the cells were digested to be suspended; and excessive medium containing fetal bovine serum was added to stop trypsinization. The cell suspension was transferred to a conical-bottomed centrifuge tube and centrifuged at 150 g rpm for 5 minutes at room temperature; the supernatant was carefully pipetted; and the cells were resuspended with the treatment medium, with the concentration adjusted to 3.2×10^5 cells/mL (incubation time: 24 hours, plate seeding density: […]). 25 μL of the cell suspension was added to each well of the 384-well cell culture plate.
The cell culture plate was placed and cultured for 24 h in the […] incubator with 9500 humidity at 37° C. c) Formulation of Compound
The stock solution of each of 1000× test compound, the positive control (rifampicin), and the negative control (propranolol) was prepared with DMSO. The final concentrations of the positive control (rifampicin) were 1 μM and 10 μM, and the final concentration of the negative control (propranolol) was 10 μM. The final concentrations of the test compound were 10 μM, 1 μM, 0.1 μM, or EC50 (30 μM, 10 μM, 3 μM, 1 μM, 0.3 μM, 0.1 μM). The final concentration of DMSO was 0.10. The cell culture plate was taken out from the incubator, and 25 nL of the stock solution of the positive control, negative control or test compound was directly added with Echo, each with three parallel concentrations. The cell culture plate was placed in the incubator and continued to be incubated for 24 h. Before starting the assay with the substrate, the cell morphology and the monolayer integrity were checked to ensure that the monolayer was of acceptable research quality. […]
d) Quantitative Detection with PXR Activation
After 24 hours of dosing, the culture could be quantitatively detected with PXR activation. The CellTiter-Fluor™ Cell Viability Assay Kit and One-Glo Luciferase reagent were equilibrated to room temperature. The GF-AFC substrate (10 μL) was added to the assay buffer (10 ml) to develop a 2× reagent, which was then diluted into a 1× reagent with 10 ml of PBS. The ONE-Glo Luciferase substrate was added to the ONE-Glo Luciferase assay buffer. The culture plate was taken out from the incubator; the medium was discarded; 1× of CellTiter-Fluor™ reagent was poured into the loading slot; 25 μL of reagent were added per well to the culture plate with a pipetting workstation; and the culture plate was then incubated in the incubator for 30 minutes. The cell culture plate was taken out from the incubator, and cooled slightly to room temperature; and the fluorescence value was determined with a fully automatic quantitative microplate reader, with the excitation light of 400 nm and the emission light of 505 nm. The ONE-Glo reagent was poured into the loading slot, with 25 μL per well, and the resulting mixture was gently mixed in the plate, and incubated at room temperature for 5 minutes to determine the luminescence value.

PARG = PARG (Homo sapiens, UniProt Q86W56); assay: Biochemical assay (PARG, TFMU-ADPr substrate); settings: PARG, TFMU-ADPr substrate
HCC1806 = assay: Cell viability assay (CellTiter-Glo); format: cell-based, Human; settings: Homo sapiens, HCC1806, 168 h, HCC1806, 7 days, CellTiter-Glo; read-out: IC50 (nM) in cell viability assay

Chain of PARG (Q86W56 whole entry): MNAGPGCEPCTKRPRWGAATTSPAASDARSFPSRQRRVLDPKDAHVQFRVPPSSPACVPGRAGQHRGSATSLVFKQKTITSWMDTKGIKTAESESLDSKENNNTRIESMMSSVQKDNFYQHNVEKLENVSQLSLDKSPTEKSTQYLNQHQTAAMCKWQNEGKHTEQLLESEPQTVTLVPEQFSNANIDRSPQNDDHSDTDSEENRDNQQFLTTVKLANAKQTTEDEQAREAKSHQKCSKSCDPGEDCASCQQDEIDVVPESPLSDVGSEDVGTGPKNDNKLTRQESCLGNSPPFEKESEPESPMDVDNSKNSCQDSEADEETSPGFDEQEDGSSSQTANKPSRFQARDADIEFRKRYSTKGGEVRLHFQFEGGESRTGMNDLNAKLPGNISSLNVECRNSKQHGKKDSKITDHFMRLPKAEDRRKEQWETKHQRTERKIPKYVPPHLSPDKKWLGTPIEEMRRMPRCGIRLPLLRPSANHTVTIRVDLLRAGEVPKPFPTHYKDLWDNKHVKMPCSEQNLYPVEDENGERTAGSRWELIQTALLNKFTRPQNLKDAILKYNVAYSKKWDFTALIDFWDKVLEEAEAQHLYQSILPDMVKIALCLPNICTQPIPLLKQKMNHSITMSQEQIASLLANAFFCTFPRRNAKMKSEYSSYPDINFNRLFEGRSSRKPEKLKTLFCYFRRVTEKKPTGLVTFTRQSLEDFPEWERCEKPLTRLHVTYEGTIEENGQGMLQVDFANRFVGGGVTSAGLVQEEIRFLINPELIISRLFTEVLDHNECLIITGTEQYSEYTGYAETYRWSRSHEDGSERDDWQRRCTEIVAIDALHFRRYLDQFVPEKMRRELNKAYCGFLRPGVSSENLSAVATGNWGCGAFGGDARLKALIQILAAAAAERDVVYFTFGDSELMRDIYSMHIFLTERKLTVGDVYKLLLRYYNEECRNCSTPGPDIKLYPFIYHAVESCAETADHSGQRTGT

Compound | PXR Activation @30 uM (Fold) (PXR) | PXR Activation @30 uM (% Ctrl) (PXR) | IC50 (PARG) | IC50 (HCC1806)
CC1(NS(=O)(=O)c2cc(N3CCN(c4ccc[nH]c4=O)CC3)c3cnc(-c4nnc(C(F)(F)F)s4)n3c2)CC1 [Example 336, N-(1-methylcyclopropyl)-8-(4-(2-oxo-1,2-dihydropyridin-3-yl)piperazin-1-yl)-3-(5-(trifluoromethyl)-1,3,4-thiadiazol-2-yl)imidazo[1,5-a]pyridine-6-sulfonamide] | 0.3 Fold | 2 % Ctrl | 54.1 nM | 1080 nM
CN1CC[C@H]1C(=O)N1CCN(c2cc(S(=O)(=O)NC3(C)CC3)cn3c(-c4nnc(C(F)(F)F)s4)ncc23)CC1 [Example 285, (S)-8-(4-(1-methylazetidine-2-carbonyl)piperazin-1-yl)-N-(1-methylcyclopropyl)-3-(5-(trifluoromethyl)-1,3,4-thiadiazol-2-yl)imidazo[1,5-a]pyridine-6-sulfonamide] | 1.7 Fold | 10 % Ctrl | 20 nM | 246 nM
CC1(NS(=O)(=O)c2cc(N3CCN(C(=O)[C@@H]4CCN4)CC3)c3cnc(-c4nnc(C(F)(F)F)s4)n3c2)CC1 [Example 284, (S)-8-(4-(azetidine-2-carbonyl)piperazin-1-yl)-N-(1-methylcyclopropyl)-3-(5-(trifluoromethyl)-1,3,4-thiadiazol-2-yl)imidazo[1,5-a]pyridine-6-sulfonamide] | 1.1 Fold | 7 % Ctrl | 16.6 nM | 310 nM
N#CC1(NS(=O)(=O)c2cc(N3CCN(C(=O)c4ccncc4)CC3)c3cnc(-c4nnc(C(F)(F)F)s4)n3c2)CC1 [Example 254, N-(1-cyanocyclopropyl)-8-(4-isonicotinoylpiperazin-1-yl)-3-(5-(trifluoromethyl)-1,3,4-thiadiazol-2-yl)imidazo[1,5-a]pyridine-6-sulfonamide] | 1.6 Fold | 12 % Ctrl | 11.5 nM | 700 nM
CN1CCC1(C)C(=O)N1CCN(c2cc(S(=O)(=O)NC3(C)CC3)cn3c(-c4nnc(C(F)(F)F)s4)ncc23)CC1 (stereo not shown) [Example 330, 8-(4-(1,2-dimethylazetidine-2-carbonyl)piperazin-1-yl)-N-(1-methylcyclopropyl)-3-(5-(trifluoromethyl)-1,3,4-thiadiazol-2-yl)imidazo[1,5-a]pyridine-6-sulfonamide] | 1.3 Fold | 9 % Ctrl | 6.55 nM | 194 nM

Now those with a lower IC50 (PARG), led by results:

PXR Activation @30 uM (Fold) (PXR) | PXR Activation @30 uM (% Ctrl) (PXR) | IC50 (PARG) | IC50 (HCC1806) | Compound
1.8 Fold | 14 % Ctrl | 4.29 nM | 205 nM | CC1(NS(=O)(=O)c2cc(N3CCN(C(=O)[C@H]4CCCN4)CC3)c3cnc(-c4nnc(C(F)(F)F)s4)n3c2)CC1 [Example 324, (R)-N-(1-methylcyclopropyl)-8-(4-prolylpiperazin-1-yl)-3-(5-(trifluoromethyl)-1,3,4-thiadiazol-2-yl)imidazo[1,5-a]pyridine-6-sulfonamide]
2.4 Fold | 15 % Ctrl | 0.36 nM | 5.76 nM | COC1(C(=O)N2CCN(c3cc(S(=O)(=O)NC4(C)CC4)cn4c(-c5nnc(C(F)(F)F)s5)ncc34)CC2)CC1 [Example 193, 8-(4-(1-methoxycyclopropane-1-carbonyl)piperazin-1-yl)-N-(1-methylcyclopropyl)-3-(5-(trifluoromethyl)-1,3,4-thiadiazol-2-yl)imidazo[1,5-a]pyridine-6-sulfonamide]
1.1 Fold | 5 % Ctrl | 0.21 nM | 234 nM | COC1(C(=O)N2CCN(c3cc(S(=O)(=O)NC4(C)CC4)cn4c(-c5nnc(C(F)F)s5)ncc34)CC2)CNC1 [Example 311, 3-(5-(difluoromethyl)-1,3,4-thiadiazol-2-yl)-8-(4-(3-methoxyazetidine-3-carbonyl)piperazin-1-yl)-N-(1-methylcyclopropyl)imidazo[1,5-a]pyridine-6-sulfonamide]
1.6 Fold | 15 % Ctrl | 4.37 nM | 137 nM | CN1CC[C@@H]1C(=O)N1CCN(c2cc(S(=O)(=O)NC3(C)CC3)cn3c(-c4nnc(C(F)(F)F)s4)ncc23)CC1 [Example 287, (R)-8-(4-(1-methylazetidine-2-carbonyl)piperazin-1-yl)-N-(1-methylcyclopropyl)-3-(5-(trifluoromethyl)-1,3,4-thiadiazol-2-yl)imidazo[1,5-a]pyridine-6-sulfonamide]
3.2 Fold | 22 % Ctrl | 0.35 nM | 24 nM | C[C@H]1CN(c2cc(S(=O)(=O)NC3(C)COC3)cn3c(-c4nnc(C(F)F)s4)ncc23)C[C@H](C)N1 [Example 179, 3-(5-(difluoromethyl)-1,3,4-thiadiazol-2-yl)-8-((3S,5S)-3,5-dimethylpiperazin-1-yl)-N-(3-methyloxetan-3-yl)imidazo[1,5-a]pyridine-6-sulfonamide]
